Measured values published in patent EP0292365A2, “4-Amino-5,8-quinazolindione derivatives, process for their preparation and pharmaceutical compositions containing them” (CENTRE NATIONAL DE LA RECHERCHE SCIENTIFIQUE, priority 1987, dated 1988).
Read-outs that look alike come from different tables or passages of the source.

Experiments:
cellules de lignée HBL = assay: Effect on in vitro cell growth, HBL line (Feulgen staining, automated scanning microscopy); assay type: cell-based, humaine; settings: for nombre de cellules observées par champ de microscope: HBL
Protocol: Les cellules tumorales en croissance exponentielle sont ensemencées (10.000 cellules/ml) dans des boîtes à Petri contenant au fond de la boîte un couvre-objet (18 x 18 mm) et 3 ml de MEM (MEM = milieu essentiel minimum) + 5 % FCS (FCS = serum de veau fetal) (v/v). Après 24 heures d'incubation, quand les cellules sont bien attachées au fond de la boîte, le milieu est remplacé par MEM expérimental contenant 5 % FCS (v/v) et enrichi, par exemple de : • a) 3 ml du milieu (MEM + 5 % FCS) = témoins • b) 3 ml du milieu contenant une dose élevée du composé à tester : 10 µg/ml : (M) • c) milieu contenant une faible dose du composé à tester : 0.01 µg/ml (f) respectivement aux jours 1, 2, 3 et 4 après addition du milieu expérimental dans les boîtes de Petri. Trois couvre-objets sont fixés pour chaque condition expérimentale : éthanol 95° (75 v), formol neutre à 40 % (20 v), acide acétique (5 v), pendant 10 minutes. Les cellules témoins cultivées dans le milieu expérimental sans le produit à tester sont fixées au même moment. A la fin de la fixation, les couvre-objets sont retournés et montés sur des lames histologiques à l'aide de produit commercialisé sous la marque DPX par la Société British Drug House et conservés à l'abri de la lumière et à 4° en attendant d'être colorés.
Les lames avec les couvre-objets sont colorées par une réaction de Feulgen modifiée. Toutes les lames d'une condition expérimentale sont conditionnées par le réactif de Feulgen en même temps, pendant une heure, après hydrolyse dans un milieu HCI 6N pendant une heure à 20° C. Les préparations cellulaires sont ensuite conservées à l'abri de la lumière et à 4°C en attendant l'analyse.
Grâce à un système d'analyse microscopique à balayage automatique, on détermine l'effet de la drogue sur la croissance cellulaire, au cours du temps, sur deux lignées cellulaires tumorales d'origine humaine : la lignée MCF-7 d'origine mammaire et la lignée HBL (mélanome malin).
On a représenté dans le tableau C les résultats relatifs à l'action du composé 63 sur la croissance des cellules de lignée MCF-7 et dans le tableau C BIS, les résultats relatifs à l'action du composé 63 sur la croissance des cellules de lignée HBL. Ces résultats montrent le nombre de cellules survivant au traitement après 1, 2, 3 et 4 jours d'incubation et à trois doses différentes (10 µg/ml, 1 µg/ml et 0,1 µg/ml).
Chaque chiffre correspond au nombre de cellules observées par champ de microscope.

Leucémie P388 = assay type: in vivo, souris DBA/2; settings: for survivants 30 jours / Δ P J1-J5 / T/C / Doses actives (T/C ≥ 125 %): P388; for T/C: survivants inclus; for activité antitumorale sur la leucémie P388: summary
Description: (§1) Afin de tester l'activité antitumorale des composés décrits plus haut, on a utilisé les leucémies murines P388 et L1210, ainsi que le mélanome murin B16. La leucémie P388 est considère comme très sensible et permet une première sélection. D'autre part, une substance ayant une grande activité sur la leucémie L1210 a une grande chance d'être active en clinique humaine (J.M. Venditti; Relevance of transplantable animal tumor systems to the Selection of new agents for clinical trial in pharmacological basis of cancer chemotherapy. The University of Texas ed. Williams and Wilkins, publ. 1975, Baltimore USA).
(§2) Cette étude a été réalisée sur 1, 2 ou 3 tumeurs murines expérimentales selon le schéma suivant :
(§3) Les produits en solution dans l'eau ou en suspension dans du Klucel sont administrés par voie intrapéritonéale 24 heures après la greffe des cellules tumorales (10 animaux par série), soit en injection unique (J1), soit pendant 9 jours consécutifs (Ji-9). Les morts sont relevés chaque jour à la même heure. La comparaison du temps médian de survie des souris témoins (C) et des souris traitées (T) permet d'apprécier l'activité antitumorale du produit. On adopte comme critère d'activité minimale la valeur de T/C supérieure ou égale à 125 % conformément aux critères établis par GERAN et par l'O.M.S. (Réf. GERAN R.I., GREENBERG N.H., MACDONALD M.M., SCHUMACHER A.M. and ABBOTT B.J. Protocols for screening chemical agents and natural products against animal tumors and other biological systems. Cancer Chemother. Rep. Part 3, 3, 1-103 (1972)).
(§4) Lorsque le composé est actif sur plusieurs tumeurs, son administration par d'autres voies que la voie intrapéritonéale (i.p.) est envisagée : orale (p.o) et intraveineuse (i.v). Les résultats des essais effectués à l'aide du composé 63 sont rassemblés dans le tableau IV ci-après.
Les résultats des essais effectués à l'aide des composés de l'invention n° 57 et 59 sont rassemblés dans le tableau IV Bis ci-après.
(§5) Dans les tableaux IV et IV Bis, P représentent la variation de poids entre J1 et J5 des animaux traités; lorsque P est supérieure à environ 4 g, cela signifie que la dose à laquelle le composé a été testé est toxique.

Mélanome B16 = assay type: in vivo, souris BDF1
Description: as §1, §2, §3, §4, §5

réticulosarcome M 5076 = assay: First trials on reticulosarcoma M 5076; assay type: in vivo; settings: souris; doses infratoxique; premiers essais
[1] = Solubility in water (statement); assay type: physicochemical
[2] = greffe ip(10^6cel.), ip J1-9, dose optimale 0,4 mg/kg/inj.
[3] = greffe ip(10^6cel.), ip J1, dose 1,25 mg/kg/inj.
[4] = greffe ip(10^6cel.), ip J1, dose optimale 3 mg/kg/inj.
[5] = greffe ip(10^6cel.), iv J1, dose 1,25 mg/kg/inj. (2 doses testées)
[6] = greffe ip(10^6cel.), po J1, dose optimale 30 mg/kg/inj.
[7] = greffe iv(10^5cel.), iv J1, dose 1,25 mg/kg/inj. (1 seule dose testée)
[8] = B16, greffe ip(susp. au 1/10), ip J1-9, dose optimale 0,2 mg/kg/inj.

In the case of `CN(C)CCCNc1ncnc2c1C(=O)C(N1CC1)=C(N1CC1)C2=O` [composé 63], the “nombre de cellules observées par champ de microscope” value (cellules de lignée HBL; 0.1µg/ml (f), 1j) is reported as 402±100 ns, the “nombre de cellules observées par champ de microscope” value (cellules de lignée HBL; 0.1µg/ml (f), 2j) is reported as 233± 36 and the “nombre de cellules observées par champ de microscope” value (cellules de lignée HBL; 0.1µg/ml (f), 3j) is reported as 633± 83 ns. For the same compound, the “nombre de cellules observées par champ de microscope” value (cellules de lignée HBL; 0.1µg/ml (f), 4j) was 474±265 ns, the “nombre de cellules observées par champ de microscope” value (cellules de lignée HBL; 1µg/ml (M), 1j) was 282± 17 ns and the “nombre de cellules observées par champ de microscope” value (cellules de lignée HBL; 1µg/ml (M), 2j) was 187± 35. For the same compound, the “nombre de cellules observées par champ de microscope” value (cellules de lignée HBL; 1µg/ml (M), 3j) was 199± 71, the “nombre de cellules observées par champ de microscope” value (cellules de lignée HBL; 1µg/ml (M), 4j) was 197± 67 and the “nombre de cellules observées par champ de microscope” value (cellules de lignée HBL; 10µg/ml (F), 1j) was 318± 83 ns. For the same compound, the “nombre de cellules observées par champ de microscope” value (cellules de lignée HBL; 10µg/ml (F), 2j) was 166± 28, the “nombre de cellules observées par champ de microscope” value (cellules de lignée HBL; 10µg/ml (F), 3j) was 553±100 ns and the “nombre de cellules observées par champ de microscope” value (cellules de lignée HBL; 10µg/ml (F), 4j) was 210± 48. The “croissance des cellules HBL” value (cellules de lignée HBL; à moyenne et forte dose, summary of tableau C BIS) was “ralentit faiblement la croissance”, the “survivants 30 jours” value (Leucémie P388; [2]) was 0 and the “Δ P J1-J5” value (Leucémie P388; [2]) was -2,1 g. The T/C (Leucémie P388; [2]) was 222%, the “survivants 30 jours” value (Leucémie P388; [3]) was 1 and the “Δ P J1-J5” value (Leucémie P388; [3]) was -1,7 g. The T/C (Leucémie P388; [3]) was 174%, the “survivants 30 jours” value (Leucémie P388; [4]) was 0 and the “Δ P J1-J5” value (Leucémie P388; [4]) was -2,0 g. The T/C (Leucémie P388; [4]) was 188%, the “survivants 30 jours” value (Leucémie P388; [5]) was 0 and the “Δ P J1-J5” value (Leucémie P388; [5]) was -0,7 g. For the same compound, the T/C (Leucémie P388; [5]) was 136%, the “survivants 30 jours” value (Leucémie P388; [6]) was 0 and the “Δ P J1-J5” value (Leucémie P388; [6]) was -4,7 g. For the same compound, the T/C (Leucémie P388; [6]) was 140%, the “Doses actives (T/C ≥ 125 %)” value (Leucémie P388; greffe ip(10^6cel.), traitement ip J1) was 0,1-3 mg/kg/inj and the “Doses actives (T/C ≥ 125 %)” value (Leucémie P388; greffe ip(10^6cel.), traitement ip J1-9) was 0,017-0,8 mg/kg/inj. For the same compound, the “Doses actives (T/C ≥ 125 %)” value (Leucémie P388; greffe ip(10^6cel.), traitement po J1) was 20-30 mg/kg/inj, the “survivants 30 jours” value (Leucémie P388; [7]) was 0 and the “Δ P J1-J5” value (Leucémie P388; [7]) was -0,1 g. For the same compound, the T/C (Leucémie P388; [7]) was 147%, the “activité antitumorale sur la leucémie P388” value (Leucémie P388; par voie orale et par voie intraveineuse) was “reste actif” and the “activité antitumorale sur la leucémie P388” value (Leucémie P388; voie intrapéritonéale) was “excellente activité antitumorale”. The “survivants 60 jours” value (Mélanome B16; [8]) was 2, the “Δ P J1-J5” value (Mélanome B16; [8]) was 0 g and the T/C (Mélanome B16; B16, greffe ip(susp. au 1/10), ip J1-9, dose optimale 0,2 mg/kg/inj., survivants inclus) was 192%. For the same compound, the “Doses actives (T/C ≥ 125 %)” value (Mélanome B16; B16, greffe ip(susp. au 1/10), traitement ip J1-9) was 0,05-0,8 mg/kg/inj, the “activité sur le mélanome B16” value (Mélanome B16; summary) was “très efficace” and the “activité sur le réticulosarcome M 5076” value (réticulosarcome M 5076) was “nette activité”. The “solubilité dans l'eau” value [1] was “hydrosoluble”.
